# Test results as given in US9676766B2, “Triazolopyridines” (BAYER INTELLECTUAL PROPERTY GMBH, priority 2009, dated 2017).
# Target: T1, human kinase Mps-1 (Homo sapiens, UniProt P33981)
# T1 construct: N-terminally GST-tagged human full length recombinant Mps-1 kinase; purchased Invitrogen, Karslruhe, Germany PV4071
# T1 sequence (P33981 1-857): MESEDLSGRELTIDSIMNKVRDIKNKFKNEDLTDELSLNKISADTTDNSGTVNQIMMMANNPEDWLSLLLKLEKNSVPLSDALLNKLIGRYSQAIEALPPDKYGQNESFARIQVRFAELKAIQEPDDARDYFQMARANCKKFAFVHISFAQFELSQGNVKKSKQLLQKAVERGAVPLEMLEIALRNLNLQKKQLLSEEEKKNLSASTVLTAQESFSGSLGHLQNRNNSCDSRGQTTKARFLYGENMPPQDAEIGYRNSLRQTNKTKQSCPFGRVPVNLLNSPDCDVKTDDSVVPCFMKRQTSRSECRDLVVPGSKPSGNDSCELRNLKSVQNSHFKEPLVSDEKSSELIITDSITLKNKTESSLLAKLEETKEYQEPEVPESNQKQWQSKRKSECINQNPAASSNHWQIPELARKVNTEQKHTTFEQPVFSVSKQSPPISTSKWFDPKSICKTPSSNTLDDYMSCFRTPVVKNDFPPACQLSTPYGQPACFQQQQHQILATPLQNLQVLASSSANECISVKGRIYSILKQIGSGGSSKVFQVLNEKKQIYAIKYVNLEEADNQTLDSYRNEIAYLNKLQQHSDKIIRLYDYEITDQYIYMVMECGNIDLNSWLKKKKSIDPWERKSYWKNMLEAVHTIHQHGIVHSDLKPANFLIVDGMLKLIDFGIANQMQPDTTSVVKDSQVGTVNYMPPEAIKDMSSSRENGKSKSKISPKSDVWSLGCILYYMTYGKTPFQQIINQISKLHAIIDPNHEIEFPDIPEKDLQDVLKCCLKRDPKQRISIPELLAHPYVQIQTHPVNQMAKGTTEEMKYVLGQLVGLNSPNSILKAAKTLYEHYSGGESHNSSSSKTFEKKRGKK
# Test: Mps-1 Kinase Assay (TR-FRET)
# Format: biochemical
# Settings: N-terminally GST-tagged human full length recombinant Mps-1; 10 μM ATP; 1 μM biotinylated peptide substrate; 60 min at 22° C.; read-out: MPS1 Inhibition, IC50 in M
row,SMILES,IC50 [nM]
1,"N#Cc1ccccc1Nc1nc2ccc(-c3ccc(NC(=O)Cc4cccnc4)cc3)cn2n1 [Example 3.8, N-(4-{2-[(2-cyanophenyl)amino][1,2,4]triazolo[1,5-a]pyridin-6-yl}phenyl)-2-(pyridin-3-yl)acetamide]",3.5
2,"NC(C(=O)Nc1ccc(-c2ccc3nc(Nc4ccccc4C(F)(F)F)nn3c2)cc1)c1ccccc1 (racemic) [Example 5.7, rac-2-amino-2-phenyl-N-[4-(2-{[2-(trifluoromethyl)phenyl]amino}[1,2,4]triazolo[1,5-a]pyridin-6-yl)phenyl]acetamide]",14
3,"O=C(CN1CCCCC1)Nc1ccc(-c2ccc3nc(Nc4ccccc4C(F)(F)F)nn3c2)cc1 [Example 5.6, 2-(piperidin-1-yl)-N-[4-(2-{[2-(trifluoromethyl)phenyl]amino}[1,2,4]triazolo[1,5-a]pyridin-6-yl)phenyl]acetamide]",880
4,"COc1ccccc1Nc1nc2ccc(-c3ccc(NC(=O)CC4CC4)cc3)cn2n1 [Example 4.2, 2-cyclopropyl-N-(4-{2-[(2-methoxyphenyl)amino][1,2,4]triazolo[1,5-a]pyridin-6-yl}phenyl)acetamide]",27
5,"COc1ccccc1Nc1nc2ccc(-c3ccc(C(=O)NC4CC4)cc3)cn2n1 [Example 1.1, N-Cyclopropyl-4-[2-(2-methoxy-phenylamino)-[1,2,4]triazolo[1,5-a]pyridin-6-yl]-benzamide]",370

# Results, then the compound that gave them:
row,IC50 [nM],SMILES
1,660,"COc1ccccc1Nc1nc2ccc(-c3cccc(NC(=O)Nc4ccncc4)c3)cn2n1 [Example 8.14, 1-(3-{2-[(2-methoxyphenyl)amino][1,2,4]triazolo[1,5-a]pyridin-6-yl}phenyl)-3-pyridin-4-ylurea]"
2,1.1,"N#Cc1ccccc1Nc1nc2ccc(-c3ccc(NC(=O)Cc4cccc(F)c4)cc3)cn2n1 [Example 3.5, N-(4-{2-[(2-cyanophenyl)amino][1,2,4]triazolo[1,5-a]pyridin-6-yl}phenyl)-2-(3-fluorophenyl)acetamide]"
3,99,"O=C(Cc1cccnc1)Nc1ccc(-c2ccc3nc(Nc4ccccc4C(F)(F)F)nn3c2)cc1 [Example 5.8, 2-(pyridin-3-yl)-N-[4-(2-{[2-(trifluoromethyl)phenyl]amino}[1,2,4]triazolo[1,5-a]pyridin-6-yl)phenyl]acetamide]"
